{
  "source": "patent US20110028554A1",
  "about": "“PHARMACEUTICAL COMPOSITIONS COMPRISING DIIODOTHYRONINE AND THEIR THERAPEUTIC USE” (UNIVERSITE JOSEPH FOURIER, priority 2007, published 2011)",
  "format_in_all_cases": "in vivo",
  "key": {"liver mitochondria [1]": {"test_system": "liver mitochondria", "test": "Liver mitochondrial oxygen consumption (JO2) of treated Wistar rats", "conditions": "for Liver mitochondrial respiratory rate, phosphorylating condition (state 3), vs placebo: all substrates", "method": "All measurements were performed using mitochondria (1.0 mg mitochondrial protein/ml) incubated with various substrates: • GM: glutamate/malate (5 mM/2.5 mM) • SR: succinate/rotenone (5 mM/5 μM), • GMS: glutamate/malate/succinate (5 mM/2.5 mM/5 mM), • Palm: palmitoyl carnitine (55 μM), • Octa: octanoyl carnitine (100 μM), • TMPD/AsC: TMPD/ascorbate (0.5 mM/0.5 mM), and • TMPD/AsC/DNP: TMPD/ascorbate/DNP (0.5 mM/0.5 mM/75 μM).\nJO2 was recorded in the presence of the substrate and following the addition of 1 mM ADP (adenosine diphosphate) (state 3).\nThe oligomycin was added to the mitochondrial suspension to determine the non-phosphorylating respiratory-rate (state 4).\nThe major part of the liver and the red part of each quadriceps were rinsed, and chopped into isolation medium (250 mM sucrose, 20 mM Tris-HCl and 1 mM EGTA-Tris, pH 7.4). Nuclei and cell debris were removed, by centrifugation at 800 g for 10 min. Mitochondria were then isolated from the supernatant by spinning twice at 8,000 g for 10 minutes. The mitochondrial pellet was resuspended in 0.5 ml of isolation buffer and kept on ice. Mitochondrial protein was measured by the bicinchoninic acid method (Pierce, Rockford, Ill.). The final mitochondrial suspensions were maintained on ice and were used for measurements of oxygen consumption rate and reactive oxygen species (ROS) production.\nThe rate of mitochondrial oxygen consumption (JO2) was measured at 30° C. in an incubation chamber with a Clark-type O2 electrode filled with 2 ml of incubation medium (125 mM KCl, 10 mM Pi-Tris, 20 mM Tris-HCl, 0.1 mM EGTA, pH 7.2). All measurements were performed using mitochondria (1.0 or 0.2 mg mitochondrial protein/ml for liver and skeletal muscle) incubated either with various substrates: glutamate/malate (5 mM/2.5 mM) and succinate (5 mM), alone or in combination, palmitoyl carnitine (55 μM) and octanoyl carnitine (100 μM). For each substrate, JO2 was recorded in the presence of the substrate alone (State 2) and following the addition of 1 mM ADP (state 3). Oligomycin (1.25 μg/mg protein) was added to the mitochondrial suspension to determine the non-phosphorylating respiratory rate (state 4). The incubation medium was constantly stirred with a built-in electromagnetic stirrer and bar flea. The efficiency of the mitochondrial oxidative phosphorylation was assessed by the state 3/state 4 ratio which measures the degree of control imposed on oxidation by phosphorylation (respiratory control ratio, RCR)."}, "liver mitochondria [2]": {"test_system": "liver mitochondria", "test": "Oxidative phosphorylation efficiency (ATP/O) in liver mitochondria of treated Wistar rats", "conditions": "3 weeks continuous subcutaneous 250 μg/kg, fatty acids (palmitoyl-, octanoyl-) and succinate as substrates", "method": "Effect of 3,5-T2 on oxidative phosphorylation efficiency investigated in liver mitochondria of Wistar rats isolated after 3 weeks of continuous treatment administered subcutaneously (250 μg/kg).\nFIGS. 20A, 20B, 20C and 20D represent the ratio between ATP synthesis (nmol/min/g prot) and liver mitochondrial oxygen consumption (nmol/min/g prot) (P/O) as a function of liver mitochondrial oxygen consumption.\nAll measurements were performed using mitochondria (1.0 mg mitochondrial protein/ml) incubated with various substrates: • GM: glutamate/malate (5 mM/2.5 mM) • Palm: palmitoyl carnitine (55 μM) • Octa: octanoyl carnitine (100 μM) and • Succ+Rot: succinate/rotenone (5 mM/5 μM)\nATP/O ratios with 5 mM glutamate/2.5 mM malate/5 mM succinate or octanoyl-carnitine (100 μM) as respiratory substrates were determined from the ATP synthesis rate (JATP) versus respiratory rate JO2 with an ADP regenerating system based, on hexokinase (EC 2.7.1.1) plus glucose. JATP and JO2 were measured as described above in a medium containing 125 mM KCl, 1 mM EGTA, 5 mM Tris-Pi, 20 mM Tris-HCl, 0.1% fat free BSA (pH 7.2). JATP was determined from glucose 6-phosphate formation in presence of 20 mM glucose, 1 mM MgCl2, and 125 μM ATP. JO2 and JATP were modulated by addition of increasing concentrations of hexokinase (Nogueira et al, J Bioenerg Biomemb., 34:55-66, 2002)."}, "[3]": {"test": "Indirect calorimetry (energy expenditure, respiratory quotient) in Wistar rats", "conditions": "low dosage 2.5 μg/100 g BW", "description": "Energy expenditure as well as the nature of substrate oxidized (carbohydrates or lipids) were investigated by indirect calorimetry. This principle is based on the determinations of CO2, release (VCO2) and O2 consumption (VO2) by each animal. It assumes that O2 is entirely involved in substrate oxidation in the respiratory chain (leading to water production) while CO2 release is related to substrate decarboxylation (in the Kreb's cycle). These measurements allow assessing energy expenditure (EE) and respiratory quotient ([…], RQ). EE represent the absolute energy dissipation during rest and activity. RQ is a relative measurement indicating the ratio of carbohydrate versus lipid involved in oxidative pathway. A ratio of 1.0 indicates exclusive carbohydrate oxidation while a ratio of 0.7 indicates exclusive lipid oxidation. Each value between these two extreme values indicates the relative proportion of each substrate (of note protein oxidation was not evaluated). As an example, RQ approaches 0.7 during fasting, indicating lipid oxidation, conversely after feeding RQ increases close to 1 indicating carbohydrate oxidation resulting from food intake and blood insulin rise. Likewise, animals fed high-carbohydrate diets have higher RQs than those fed high-fat diets.\nThe indirect calorimetry system (Panlab, Barcelona, Spain) consists of cages, pumps, flow controllers, valves, and analyzers. […]"}},
  "data": [
    {"compound": "N[C@@H](Cc1cc(I)c(Oc2ccc(O)cc2)c(I)c1)C(=O)O", "note": "[3,5-T2, 3,5-diiodothyronine]", "values": [
      {"measurement": "Liver mitochondrial respiratory rate, non-phosphorylating (state 4, oligomycin), vs placebo", "setting": "liver mitochondria [1]; high dosage 25 μg/100 g BW", "value": "substantially higher in the low 3,5-T2 group only"},
      {"measurement": "Liver mitochondrial respiratory rate, phosphorylating condition (state 3), vs placebo", "setting": "liver mitochondria [1]; high dosage 25 μg/100 g BW", "value": "very significant increased respiratory rate"},
      {"measurement": "Liver mitochondrial respiratory rate, non-phosphorylating (state 4, oligomycin), vs placebo", "setting": "liver mitochondria [1]; low dosage 2.5 μg/100 g BW", "value": "substantially higher"},
      {"measurement": "Liver mitochondrial respiratory rate, phosphorylating condition (state 3), vs placebo", "setting": "liver mitochondria [1]; low dosage 2.5 μg/100 g BW", "value": "very significant increased respiratory rate"},
      {"measurement": "Efficiency of oxidative phosphorylation (ATP/oxygen ratio)", "setting": "liver mitochondria [2]", "value": "lowers the yield of ATP synthesis"},
      {"measurement": "Respiratory quotient (RQ) vs placebo", "setting": "[3]", "value": "lower than RQ with placebo treatment during the day and the first part of the night"}
    ]}
  ]
}
